According to patent US20230148214A1, “INDAZOLES AND AZAINDAZOLES AS LRRK2 INHIBITORS” (ESCAPE Bio, Inc., priority 2020, published 2023):

Biological target: T1, LRRK2 WT (Homo sapiens, UniProt Q5S007)
T1 construct: purchased Life Technologies PR8604B
Experiment: LRRK2 Kinase Activity Assay (LanthaScreen TR-FRET), wild type
Format: biochemical
Settings: recombinant wild type LRRK2, 25 μM ATP, 400 nM LRRKtide, 60 min; class symbols
Method: LRRK2 kinase activity was measured using a LanthaScreen™ Kinase Activity Assay from ThermoFisher Scientific. Recombinant wild type or G2019S-LRRK2 protein (Life Technologies, PR8604B or PV4881, respectively), was incubated with a fluorescein-labeled peptide substrate called LRRKtide that is based upon ezrin/radixin/moesin (ERM) (Life Technologies, PV4901) in the presence of ATP and serially diluted compound. […] Compound-dependent inhibition of the TR-FRET signal was used to generate a concentration-response curve for IC50 determination.
After 60 min incubation at room temperature, the reaction was stopped by addition of 10 μL of 2×stop solution containing a final concentration of 2 nM anti-pERM antibody and 10 mM EDTA.

T1 sequence (Q5S007 whole entry): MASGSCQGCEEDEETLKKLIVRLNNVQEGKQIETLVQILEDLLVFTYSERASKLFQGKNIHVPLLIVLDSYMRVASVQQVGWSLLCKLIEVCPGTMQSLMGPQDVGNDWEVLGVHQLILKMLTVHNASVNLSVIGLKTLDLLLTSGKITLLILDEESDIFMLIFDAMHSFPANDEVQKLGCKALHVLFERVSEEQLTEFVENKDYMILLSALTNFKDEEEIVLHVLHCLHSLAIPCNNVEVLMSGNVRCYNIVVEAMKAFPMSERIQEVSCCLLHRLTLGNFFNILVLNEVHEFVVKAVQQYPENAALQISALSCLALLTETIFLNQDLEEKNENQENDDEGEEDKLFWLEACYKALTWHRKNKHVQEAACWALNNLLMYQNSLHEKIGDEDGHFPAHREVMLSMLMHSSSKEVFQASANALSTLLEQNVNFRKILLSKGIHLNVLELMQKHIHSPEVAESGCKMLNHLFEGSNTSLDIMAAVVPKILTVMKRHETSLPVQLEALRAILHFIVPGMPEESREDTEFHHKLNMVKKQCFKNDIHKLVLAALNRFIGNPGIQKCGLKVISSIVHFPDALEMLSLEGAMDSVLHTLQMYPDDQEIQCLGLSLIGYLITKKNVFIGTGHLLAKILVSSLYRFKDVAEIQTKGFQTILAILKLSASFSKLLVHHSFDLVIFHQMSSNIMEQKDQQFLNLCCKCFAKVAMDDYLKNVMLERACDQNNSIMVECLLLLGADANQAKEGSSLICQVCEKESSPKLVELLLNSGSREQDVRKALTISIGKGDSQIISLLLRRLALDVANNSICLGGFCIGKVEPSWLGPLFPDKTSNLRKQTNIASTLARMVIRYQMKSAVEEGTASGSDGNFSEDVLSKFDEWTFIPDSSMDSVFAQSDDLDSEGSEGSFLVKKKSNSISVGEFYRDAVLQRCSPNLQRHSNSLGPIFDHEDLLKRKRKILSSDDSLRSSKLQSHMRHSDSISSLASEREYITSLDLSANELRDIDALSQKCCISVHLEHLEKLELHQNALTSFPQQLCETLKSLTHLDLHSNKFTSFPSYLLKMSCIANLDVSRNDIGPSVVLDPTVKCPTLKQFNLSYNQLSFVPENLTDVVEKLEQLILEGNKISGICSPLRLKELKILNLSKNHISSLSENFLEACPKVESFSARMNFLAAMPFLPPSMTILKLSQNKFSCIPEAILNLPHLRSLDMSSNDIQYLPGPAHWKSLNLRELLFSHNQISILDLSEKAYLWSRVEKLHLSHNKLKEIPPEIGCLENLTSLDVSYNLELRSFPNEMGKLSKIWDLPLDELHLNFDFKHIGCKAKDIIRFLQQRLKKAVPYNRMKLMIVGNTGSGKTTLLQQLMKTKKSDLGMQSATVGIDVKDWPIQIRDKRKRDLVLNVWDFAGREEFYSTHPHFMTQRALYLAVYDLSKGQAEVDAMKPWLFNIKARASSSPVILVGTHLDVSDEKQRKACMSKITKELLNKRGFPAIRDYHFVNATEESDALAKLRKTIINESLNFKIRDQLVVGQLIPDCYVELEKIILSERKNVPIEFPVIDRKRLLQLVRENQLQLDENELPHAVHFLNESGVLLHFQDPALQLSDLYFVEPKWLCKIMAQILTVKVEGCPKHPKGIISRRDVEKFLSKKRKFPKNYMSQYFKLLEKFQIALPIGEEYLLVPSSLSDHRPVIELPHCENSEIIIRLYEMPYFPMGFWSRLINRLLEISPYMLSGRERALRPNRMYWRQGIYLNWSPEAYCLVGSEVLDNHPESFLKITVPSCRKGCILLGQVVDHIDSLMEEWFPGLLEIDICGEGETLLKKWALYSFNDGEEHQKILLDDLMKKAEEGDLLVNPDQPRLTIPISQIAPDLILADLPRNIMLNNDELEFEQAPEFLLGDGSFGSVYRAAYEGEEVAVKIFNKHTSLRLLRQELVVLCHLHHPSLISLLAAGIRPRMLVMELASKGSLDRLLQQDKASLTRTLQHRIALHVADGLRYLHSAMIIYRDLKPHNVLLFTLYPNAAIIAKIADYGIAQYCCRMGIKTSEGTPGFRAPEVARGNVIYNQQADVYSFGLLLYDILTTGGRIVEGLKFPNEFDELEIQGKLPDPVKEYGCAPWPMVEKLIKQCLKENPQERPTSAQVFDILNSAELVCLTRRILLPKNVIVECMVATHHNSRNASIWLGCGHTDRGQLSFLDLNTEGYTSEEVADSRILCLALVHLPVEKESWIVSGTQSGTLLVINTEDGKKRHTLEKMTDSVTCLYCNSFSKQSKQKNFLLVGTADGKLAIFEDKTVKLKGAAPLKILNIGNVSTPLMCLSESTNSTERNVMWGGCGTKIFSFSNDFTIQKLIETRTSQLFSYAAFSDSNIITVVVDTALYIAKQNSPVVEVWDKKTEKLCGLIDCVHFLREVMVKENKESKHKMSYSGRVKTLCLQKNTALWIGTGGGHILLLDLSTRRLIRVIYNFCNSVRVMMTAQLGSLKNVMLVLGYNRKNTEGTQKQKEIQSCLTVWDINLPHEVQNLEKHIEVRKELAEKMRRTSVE

Row | SMILES | IC50 [nM]
1 | N#Cc1cc2c(nc1Cl)[C@@H](Oc1ccc3[nH]nc(-c4cnco4)c3c1)CCC2 (single isomer, unassigned) [177, enantiomer 2, 2-Chloro-8-((3-(oxazol-5-yl)-1H-indazol-5-yl)oxy)-5,6,7,8-tetrahydroquinoline-3-carbonitrile] | < 100
2 | N#Cc1cc2c(nc1Cl)[C@@H](Oc1ccc3[nH]nc(-c4cnoc4)c3c1)CCC2 (single isomer, unassigned) [178, enantiomer 2, 2-Chloro-8-[[3-(1,2-oxazol-4-yl)-1H-indazol-5-yl]oxy]-5,6,7,8-tetrahydroquinoline-3-carbonitrile] | < 100
3 | N#Cc1cc2c(cc1F)[C@@H](Oc1ccc3[nH]nc(-c4cnco4)c3c1)CCC2 (single isomer, unassigned) [180, enantiomer 2, 3-Fluoro-5-[[3-(1,3-oxazol-5-yl)-1H-indazol-5-yl]oxy]-5,6,7,8-tetrahydronaphthalene-2-carbonitrile] | < 100
4 | N#Cc1cnc2c(n1)CC[C@@H]2Oc1ccc2[nH]nc(-c3cnco3)c2c1 (single isomer, unassigned) [182, enantiomer 2, 5-((3-(Oxazol-5-yl)-1H-indazol-5-yl)oxy)-6,7-dihydro-5H-cyclopenta[b]pyrazine-2-carbonitrile] | < 100
5 | N#Cc1cnc2c(c1)CCC[C@@H]2Oc1ccc2[nH]nc(-c3cnoc3)c2c1 (single isomer, unassigned) [Example 2, enantiomer 2, 8-((3-(Isoxazol-4-yl)-1H-indazol-5-yl)oxy)-5,6,7,8-tetrahydroquinoline-3-carbonitrile] | < 100
6 | N#Cc1ccc2c(c1)CCC2Oc1ccc2[nH]nc(-c3cnco3)c2c1 (single isomer, unassigned) [Example 3, enantiomer 2, 1-((3-(Oxazol-5-yl)-1H-indazol-5-yl)oxy)-2,3-dihydro-1H-indene-5-carbonitrile] | < 100
7 | N#Cc1ccc2c(c1)CC[C@@H]2Oc1ccc2[nH]nc(-c3cnn(C(F)F)c3)c2c1 (single isomer, unassigned) [Example 4, enantiomer 2, 1-((3-(1-(Difluoromethyl)-1H-pyrazol-4-yl)-1H-indazol-5-yl)oxy)-2,3-dihydro-1H-indene-5-carbonitrile] | < 100
8 | N#Cc1ccc2c(c1)CC[C@@H]2Oc1ccc2[nH]nc(-c3cnoc3)c2c1 (single isomer, unassigned) [Example 5, enantiomer 2, 1-((3-(Isoxazol-4-yl)-1H-indazol-5-yl)oxy)-2,3-dihydro-1H-indene-5-carbonitrile] | < 100
9 | N#Cc1ccc2c(c1)CC[C@@H]2Nc1ccc2[nH]nc(-c3cnoc3)c2c1 (single isomer, unassigned) [Example 8, enantiomer 2, 1-((3-(Isoxazol-4-yl)-1H-indazol-5-yl)amino)-2,3-dihydro-1H-indene-5-carbonitrile] | < 100
10 | N#Cc1ccc2c(c1)CC[C@@H]2Nc1ccc2[nH]nc(-c3cnco3)c2c1 (single isomer, unassigned) [Example 9, enantiomer 2, 1-((3-(Oxazol-5-yl)-1H-indazol-5-yl)amino)-2,3-dihydro-1H-indene-5-carbonitrile] | < 100
11 | N#Cc1ccc2c(c1)CC[C@@H]2Nc1ccc2[nH]nc(-c3ccoc3)c2c1 (single isomer, unassigned) [Example 11, enantiomer 2, 1-((3-(Furan-3-yl)-1H-indazol-5-yl)amino)-2,3-dihydro-1H-indene-5-carbonitrile] | < 100
12 | N#Cc1ccc2c(c1)CC[C@@H]2Nc1ccc2[nH]nc(-c3cnn(C(F)F)c3)c2c1 (single isomer, unassigned) [Example 12, enantiomer 2, 1-((3-(1-(Difluoromethyl)-1H-pyrazol-4-yl)-1H-indazol-5-yl)amino)-2,3-dihydro-1H-indene-5-carbonitrile] | < 100
13 | Cc1cc(C#N)cc2c1[C@@H](Oc1ccc3[nH]nc(-c4cnco4)c3c1)CC2 (single isomer, unassigned) [Example 14, enantiomer 2, 7-Methyl-1-((3-(oxazol-5-yl)-1H-indazol-5-yl)oxy)-2,3-dihydro-1H-indene-5-carbonitrile] | < 100
14 | N#Cc1cnc2c(c1)CCC[C@@H]2Oc1ccc2[nH]nc(-c3cnco3)c2c1 (single isomer, unassigned) [Example 16, enantiomer 2, 8-((3-(Oxazol-5-yl)-1H-indazol-5-yl)oxy)-5,6,7,8-tetrahydroquinoline-3-carbonitrile] | < 100
15 | N#Cc1ccc2c(c1)CCC[C@@H]2Oc1ccc2[nH]nc(-c3cnco3)c2c1 (single isomer, unassigned) [Example 18, enantiomer 2, 5-((3-(Oxazol-5-yl)-1H-indazol-5-yl)oxy)-5,6,7,8-tetrahydronaphthalene-2-carbonitrile] | < 100

Further lines, results first:

Row | IC50 [nM] | SMILES
16 | < 100 | Cc1c(C#N)ccc2c1CC[C@@H]2Oc1ccc2[nH]nc(-c3cnco3)c2c1 (single isomer, unassigned) [Example 22, enantiomer 2, 4-Methyl-1-((3-(oxazol-5-yl)-1H-indazol-5-yl)oxy)-2,3-dihydro-1H-indene-5-carbonitrile]
17 | < 100 | N#Cc1cc2c(cc1F)[C@@H](Oc1ccc3[nH]nc(-c4cnco4)c3c1)CC2 (single isomer, unassigned) [Example 23, enantiomer 2, 6-Fluoro-1-((3-(oxazol-5-yl)-1H-indazol-5-yl)oxy)-2,3-dihydro-1H-indene-5-carbonitrile]
18 | < 100 | N#Cc1ccc2c(c1F)CC[C@@H]2Oc1ccc2[nH]nc(-c3cnco3)c2c1 (single isomer, unassigned) [Example 24, enantiomer 2, 4-Fluoro-1-((3-(oxazol-5-yl)-1H-indazol-5-yl)oxy)-2,3-dihydro-1H-indene-5-carbonitrile]
19 | < 100 | N#Cc1cc2c(cc1F)[C@@H](Nc1ccc3[nH]nc(-c4cnco4)c3c1)CC2 (single isomer, unassigned) [Example 25, enantiomer 2, 6-Fluoro-1-((3-(oxazol-5-yl)-1H-indazol-5-yl)amino)-2,3-dihydro-1H-indene-5-carbonitrile]
20 | < 100 | N#Cc1ccc2c(c1F)CC[C@@H]2Nc1ccc2[nH]nc(-c3cnco3)c2c1 (single isomer, unassigned) [Example 26, enantiomer 2, 4-Fluoro-1-((3-(oxazol-5-yl)-1H-indazol-5-yl)amino)-2,3-dihydro-1H-indene-5-carbonitrile]
21 | < 100 | Cc1c(C#N)ccc2c1CC[C@@H]2Nc1ccc2[nH]nc(-c3cnco3)c2c1 (single isomer, unassigned) [Example 27, enantiomer 2, 4-methyl-1-((3-(oxazol-5-yl)-1H-indazol-5-yl)amino)-2,3-dihydro-1H-indene-5-carbonitrile]
22 | < 100 | Cc1cc2c(cc1C#N)CC[C@@H]2Nc1ccc2[nH]nc(-c3cnco3)c2c1 (single isomer, unassigned) [Example 28, enantiomer 2, 6-Methyl-1-((3-(oxazol-5-yl)-1H-indazol-5-yl)amino)-2,3-dihydro-1H-indene-5-carbonitrile]
23 | < 100 | Cc1cc2c(cc1C#N)CC[C@H]2Oc1ccc2[nH]nc(-c3cnco3)c2c1 (single isomer, unassigned) [Example 29, enantiomer 2, 6-Methyl-1-((3-(oxazol-5-yl)-1H-indazol-5-yl)oxy)-2,3-dihydro-1H-indene-5-carbonitrile]
24 | < 100 | N#Cc1cccc2c1[C@@H](Oc1ccc3[nH]nc(-c4cnco4)c3c1)CC2 (single isomer, unassigned) [Example 37, enantiomer 2, 3-((3-(Oxazol-5-yl)-1H-indazol-5-yl)oxy)-2,3-dihydro-1H-indene-4-carbonitrile]
25 | < 100 | N#Cc1ccc2c(c1)CCC[C@@H]2Oc1ccc2[nH]nc(-c3ccnc(N4CCOCC4)c3)c2c1 (single isomer, unassigned) [Example 39, enantiomer 2, 5-((3-(2-Morpholinopyridin-4-yl)-1H-indazol-5-yl)oxy)-5,6,7,8-tetrahydronaphthalene-2-carbonitrile]
26 | < 100 | COc1cc(-c2n[nH]c3ccc(N[C@H]4CCc5cc(C#N)ccc54)cc23)ccn1 (single isomer, unassigned) [Example 40, enantiomer 2, 1-((3-(2-Methoxypyridin-4-yl)-1H-indazol-5-yl)amino)-2,3-dihydro-1H-indene-5-carbonitrile]
27 | < 100 | N#Cc1cc2c(nn1)[C@@H](Oc1ccc3[nH]nc(-c4cnco4)c3c1)CC2 (single isomer, unassigned) [Example 41, enantiomer 2, 7-((3-(Oxazol-5-yl)-1H-indazol-5-yl)oxy)-6,7-dihydro-5H-cyclopenta[c]pyridazine-3-carbonitrile]
28 | < 100 | N#Cc1ccc2c(c1)CC(F)(F)[C@@H]2Nc1ccc2[nH]nc(-c3cnco3)c2c1 (single isomer, unassigned) [Example 42, enantiomer 2, 2,2-Difluoro-1-((3-(oxazol-5-yl)-1H-indazol-5-yl)amino)-2,3-dihydro-1H-indene-5-carbonitrile]
29 | < 100 | N#Cc1cnc2c(c1)C1CC1[C@@H]2Nc1ccc2[nH]nc(-c3cnco3)c2c1 (single isomer, unassigned) [Example 48, enantiomer 2, 6-((3-(Oxazol-5-yl)-1H-indazol-5-yl)amino)-4b,5,5a,6-tetrahydrocyclopropa[3,4]cyclopenta[1,2-b]pyridine-3-carbonitrile]
30 | < 100 | N#Cc1ccc2c(c1F)CC[C@@H]2Oc1ccc2[nH]nc(-c3cnn(C(F)F)c3)c2c1 (single isomer, unassigned) [Example 51, enantiomer 2, 1-((3-(1-(Difluoromethyl)-1H-pyrazol-4-yl)-1H-indazol-5-yl)oxy)-4-fluoro-2,3-dihydro-1H-indene-5-carbonitrile]
